Experiments:
MCF7 cell line = experiment: In vitro cytotoxic activity, MTT method, MCF7; type: cell-based, human; conditions: for IC50: Homo sapiens, MCF7, MCF7 cell line, MTT
Protocol: (§1) Cell lines: The in vitro human breast cancerous cell line (MCF7), lung cancerous cell lines (A549) and normal cell lines were purchased from Serum and Vaccine formulation in Cairo-Egypt.
(§2) In vitro cytotoxic activity of all synthesized compounds against two human breast cell line (MCF7) and lung cell lines (A549) was evaluated according to the MTT method. Firstly, Growth the cell line medium in 96 well tissue culture plate was injected with 10^5 cells/mL (100 uL/plate well) of the cell line and incubated at 37 °C for 24 h to develop a monolayer sheet then the formed growth medium was poured from 96 well microtiter plates after the confluent sheet of cells. […] Secondly, add 0.1 mL of each concentration tetrahydroisoquinoline sample to each plate. The plates were incubated at 37 °C. Thirdly MTT solution (5 mg/mL in PBS) is prepared. Add 20 µL of MTT solution to each well plates. And shaking in 150 rpm for 5 min, to mix the MTT into the media. Then incubate at (37 °C, 5% CO2) for 1–5 h. Finally read the optical density at 560 nm and subtract background at 620 nm.
(§3) In this work, doxorubicin was used as a positive control drug for comparison with the synthesized compounds under the same experimental conditions.

A549 cell line = experiment: In vitro cytotoxic activity, MTT method, A549; conditions: for IC50: Homo sapiens, read-out: IC50 ± SD
Protocol: as §1, §2, §3

CCOC(=O)CSc1nc(C)c2c(c1C#N)CC(C)(O)C(C(C)=O)C2c1ccc(N(C)C)cc1 (stereo not drawn) [Compound 4, Ethyl 2-((7-Acetyl-4-cyano-1,6-dimethyl-6-hydroxy-8-(4-N,N-dimethylamino-phenyl)-5,6,7,8-tetrahydroisoquinolin-3-yl)thio)acetate]
IC50 (MCF7 cell line): 3074 ± 8 nM
Toxicity % (MCF7 cell line; MCF7, 0.0487 µMol): 0.03467%
Viability % (MCF7 cell line; MCF7, 0.0487 µMol): 99.94%
Toxicity % (MCF7 cell line; MCF7, 0.0975 µMol): 0.06434%
Viability % (MCF7 cell line; MCF7, 0.0975 µMol): 99.94%
Toxicity % (MCF7 cell line; MCF7, 0.195 µMol): 0.0817%
Viability % (MCF7 cell line; MCF7, 0.195 µMol): 99.92%
Viability % (MCF7 cell line; MCF7, 0.391 µMol): 100%
Toxicity % (MCF7 cell line; MCF7, 0.781 µMol): 7.925%
Viability % (MCF7 cell line; MCF7, 0.781 µMol): 92.08%
Toxicity % (MCF7 cell line; MCF7, 1.562 µMol): 23.41%
Viability % (MCF7 cell line; MCF7, 1.562 µMol): 76.59%
Toxicity % (MCF7 cell line; MCF7, 3.125 µMol): 36.89%
Viability % (MCF7 cell line; MCF7, 3.125 µMol): 63.11%
Toxicity % (MCF7 cell line; MCF7, 6.25 µMol): 82.07%
Viability % (MCF7 cell line; MCF7, 6.25 µMol): 17.93%
Toxicity % (MCF7 cell line; MCF7, 12.5 µMol): 91.75%
Viability % (MCF7 cell line; MCF7, 12.5 µMol): 8.252%
Toxicity % (MCF7 cell line; MCF7, 25 µMol): 96.81%
Viability % (MCF7 cell line; MCF7, 25 µMol): 3.186%
Toxicity % (A549 cell line; A549, Conc. 0.0487 µMol): 1.8%
Viability % (A549 cell line; A549, Conc. 0.0487 µMol): 98.2%
Toxicity % (A549 cell line; A549, Conc. 0.0975 µMol): 2%
Viability % (A549 cell line; A549, Conc. 0.0975 µMol): 98%
Toxicity % (A549 cell line; A549, Conc. 0.195 µMol): 3.945%
Viability % (A549 cell line; A549, Conc. 0.195 µMol): 96.06%
Toxicity % (A549 cell line; A549, Conc. 0.391 µMol): 21.14%
Viability % (A549 cell line; A549, Conc. 0.391 µMol): 78.86%
Toxicity % (A549 cell line; A549, Conc. 0.781 µMol): 32.54%
Viability % (A549 cell line; A549, Conc. 0.781 µMol): 67.46%
Toxicity % (A549 cell line; A549, Conc. 1.562 µMol): 62.13%
Viability % (A549 cell line; A549, Conc. 1.562 µMol): 37.87%
Toxicity % (A549 cell line; A549, Conc. 3.125 µMol): 70.97%
Viability % (A549 cell line; A549, Conc. 3.125 µMol): 29.03%
Toxicity % (A549 cell line; A549, Conc. 6.25 µMol): 89.19%
Viability % (A549 cell line; A549, Conc. 6.25 µMol): 10.81%
Toxicity % (A549 cell line; A549, Conc. 12.5 µMol): 95.94%
Viability % (A549 cell line; A549, Conc. 12.5 µMol): 4.063%
Toxicity % (A549 cell line; A549, Conc. 25 µMol): 97.28%
Viability % (A549 cell line; A549, Conc. 25 µMol): 2.722%
IC50 (A549 cell line): 918 ± 2 nM

CC(=O)C1C(c2ccc(N(C)C)cc2)c2c(C)nc(SCC(N)=O)c(C#N)c2CC1(C)O (stereo not drawn) [Compound 5, 2-[(7-Acetyl-4-cyano-1,6-dimethyl-6-hydroxy-8-(4-N,N-dimethylamino-phenyl)-5,6,7,8-tetrahydroisoquinolin-3-yl)thio]acetamide]
IC50 (MCF7 cell line): 924 ± 7 nM
Toxicity % (MCF7 cell line; MCF7, 0.0487 µMol): -4.567%
Viability % (MCF7 cell line; MCF7, 0.0487 µMol): 104.5%
Toxicity % (MCF7 cell line; MCF7, 0.0975 µMol): -3.545%
Viability % (MCF7 cell line; MCF7, 0.0975 µMol): 103.6%
Toxicity % (MCF7 cell line; MCF7, 0.195 µMol): -2.859%
Viability % (MCF7 cell line; MCF7, 0.195 µMol): 102.9%
Toxicity % (MCF7 cell line; MCF7, 0.391 µMol): 4.208%
Viability % (MCF7 cell line; MCF7, 0.391 µMol): 95.79%
Toxicity % (MCF7 cell line; MCF7, 0.781 µMol): 35.46%
Viability % (MCF7 cell line; MCF7, 0.781 µMol): 64.54%
Toxicity % (MCF7 cell line; MCF7, 1.562 µMol): 77.53%
Viability % (MCF7 cell line; MCF7, 1.562 µMol): 22.47%
Toxicity % (MCF7 cell line; MCF7, 3.125 µMol): 88.89%
Viability % (MCF7 cell line; MCF7, 3.125 µMol): 11.11%
Toxicity % (MCF7 cell line; MCF7, 6.25 µMol): 93.91%
Viability % (MCF7 cell line; MCF7, 6.25 µMol): 6.087%
Toxicity % (MCF7 cell line; MCF7, 12.5 µMol): 96.85%
Viability % (MCF7 cell line; MCF7, 12.5 µMol): 3.145%
Toxicity % (MCF7 cell line; MCF7, 25 µMol): 97.22%
Viability % (MCF7 cell line; MCF7, 25 µMol): 2.778%
Toxicity % (A549 cell line; A549, Conc. 0.0487 µMol): 0%
Viability % (A549 cell line; A549, Conc. 0.0487 µMol): 100%
Toxicity % (A549 cell line; A549, Conc. 0.0975 µMol): 0.13%
Viability % (A549 cell line; A549, Conc. 0.0975 µMol): 99.87%
Toxicity % (A549 cell line; A549, Conc. 0.195 µMol): 0.3156%
Viability % (A549 cell line; A549, Conc. 0.195 µMol): 99.68%
Toxicity % (A549 cell line; A549, Conc. 0.391 µMol): 9.625%
Viability % (A549 cell line; A549, Conc. 0.391 µMol): 90.37%
Toxicity % (A549 cell line; A549, Conc. 0.781 µMol): 36.96%
Viability % (A549 cell line; A549, Conc. 0.781 µMol): 63.04%
Toxicity % (A549 cell line; A549, Conc. 1.562 µMol): 54.08%
Viability % (A549 cell line; A549, Conc. 1.562 µMol): 45.92%
Toxicity % (A549 cell line; A549, Conc. 3.125 µMol): 69.66%
Viability % (A549 cell line; A549, Conc. 3.125 µMol): 30.34%
Toxicity % (A549 cell line; A549, Conc. 6.25 µMol): 83.27%
Viability % (A549 cell line; A549, Conc. 6.25 µMol): 16.73%
Toxicity % (A549 cell line; A549, Conc. 12.5 µMol): 91.6%
Viability % (A549 cell line; A549, Conc. 12.5 µMol): 8.402%
Toxicity % (A549 cell line; A549, Conc. 25 µMol): 96.37%
Viability % (A549 cell line; A549, Conc. 25 µMol): 3.629%
IC50 (A549 cell line): 1247 ± 2 nM

CC(=O)C1C(c2ccc(N(C)C)cc2)c2c(C)nc3sc(C(=O)Nc4ccc(C)cc4)c(N)c3c2CC1(C)O (stereo not drawn) [Compound 8b, 7-Acetyl-1-amino-5,8-dimethyl-8-hydroxy-6-(4-N,N-dimethylaminophenyl)-N-(4-tolyl)-6,7,8,9-tetrahydrothieno[2,3-c]isoquinoline-2-carboxamide]
IC50 (MCF7 cell line): 3800 ± 8 nM
Toxicity % (MCF7 cell line; MCF7, Conc. 0.0487 µMol): 0.0678%
Viability % (MCF7 cell line; MCF7, Conc. 0.0487 µMol): 99.9322%
Toxicity % (MCF7 cell line; MCF7, Conc. 0.0975 µMol): 0.1234%
Viability % (MCF7 cell line; MCF7, Conc. 0.0975 µMol): 99.8766%
Toxicity % (MCF7 cell line; MCF7, Conc. 0.195 µMol): 0.2042%
Viability % (MCF7 cell line; MCF7, Conc. 0.195 µMol): 99.8%
Toxicity % (MCF7 cell line; MCF7, Conc. 0.391 µMol): -0.2042%
Viability % (MCF7 cell line; MCF7, Conc. 0.391 µMol): 100.2%
Toxicity % (MCF7 cell line; MCF7, Conc. 0.781 µMol): 2.124%
Viability % (MCF7 cell line; MCF7, Conc. 0.781 µMol): 97.88%
Toxicity % (MCF7 cell line; MCF7, Conc. 1.562 µMol): 13.36%
Viability % (MCF7 cell line; MCF7, Conc. 1.562 µMol): 86.64%
Toxicity % (MCF7 cell line; MCF7, Conc. 3.125 µMol): 24.63%
Viability % (MCF7 cell line; MCF7, Conc. 3.125 µMol): 75.37%
Toxicity % (MCF7 cell line; MCF7, Conc. 6.25 µMol): 60.13%
Viability % (MCF7 cell line; MCF7, Conc. 6.25 µMol): 39.87%
Toxicity % (MCF7 cell line; MCF7, Conc. 12.5 µMol): 88.07%
Viability % (MCF7 cell line; MCF7, Conc. 12.5 µMol): 11.93%
Toxicity % (MCF7 cell line; MCF7, Conc. 25 µMol): 96.69%
Viability % (MCF7 cell line; MCF7, Conc. 25 µMol): 3.309%
Toxicity % (A549 cell line; A549, Conc. 0.04875 µMol): 8.929%
Toxicity % (A549 cell line; A549, Conc. 0.0975 µMol): 10.49%
Toxicity % (A549 cell line; A549, Conc. 0.195 µMol): 12.58%
Viability % (A549 cell line; A549, Conc. 0.195 µMol): 87.42%
Toxicity % (A549 cell line; A549, Conc. 0.391 µMol): 21.42%
Viability % (A549 cell line; A549, Conc. 0.391 µMol): 78.58%
Toxicity % (A549 cell line; A549, Conc. 0.781 µMol): 51.95%
Viability % (A549 cell line; A549, Conc. 0.781 µMol): 48.05%
Toxicity % (A549 cell line; A549, Conc. 1.562 µMol): 61.42%
Viability % (A549 cell line; A549, Conc. 1.562 µMol): 38.58%
Toxicity % (A549 cell line; A549, Conc. 3.125 µMol): 70.69%
Viability % (A549 cell line; A549, Conc. 3.125 µMol): 29.31%
Toxicity % (A549 cell line; A549, Conc. 6.25 µMol): 84.3%
Viability % (A549 cell line; A549, Conc. 6.25 µMol): 15.7%
Toxicity % (A549 cell line; A549, Conc. 12.5 µMol): 93.25%
Viability % (A549 cell line; A549, Conc. 12.5 µMol): 6.746%
Toxicity % (A549 cell line; A549, Conc. 25 µMol): 96.06%
Viability % (A549 cell line; A549, Conc. 25 µMol): 3.945%
IC50 (A549 cell line): 527 ± 2 nM

— PMC10873978, “Novel tetrahydroisoquinolines as DHFR and CDK2 inhibitors: synthesis, characterization, anticancer activity and antioxidant properties” (BMC Chemistry, 2024)
